Data reported in ChEMBL document CHEMBL1138025, “Nocathiacin I analogues: synthesis, in vitro and in vivo biological activity of novel semi-synthetic thiazolyl peptide antibiotics” (Bioorg Med Chem Lett, 2004).
Values after ≈ are worked out from the molar mass of the structure shown.

How the values were obtained:
[1] = system: Staphylococcus aureus; assay: In vitro antibacterial activity against methicillin-sensitive Staphylococcus aureus A15090; type: functional
[2] = system: Enterococcus faecalis; assay: In vitro antibacterial activity against methicillin-sensitive Enterococcus faecalis A20688; type: functional
[3] = system: Streptococcus pneumoniae; assay: In vitro antibacterial activity against penicillin-resistant Streptococcus pneumoniae A28272; type: functional
[4] = system: Mus musculus; assay: In vivo efficacy (PD50) against lethal Staphylococcus aureus systemic infection model in mice; type: functional; conditions: read-out: PD50
[5] = Equilibrium water solubility at pH 3.3; type: physicochemical
[6] = Equilibrium water solubility at pH 3.8; type: physicochemical
[7] = Equilibrium water solubility at pH 2.9; type: physicochemical
[8] = target: Neuronal acetylcholine receptor; alpha4/beta2 (Rattus norvegicus, UniProt P09483+P12390); assay: Inhibition of [3H]- cytisine binding to Nicotinic acetylcholine receptor alpha4-beta2 of rat cortical membranes; type: cell membranes, Membrane
[9] = species on record: Mus musculus; assay: Effective concentration showing antinociception activity was determined by tail flick test in mouse; type: functional, organism-based
[10] = Equilibrium water solubility at pH 3.5; type: physicochemical
[11] = Equilibrium water solubility at pH 3.2; type: physicochemical
[12] = Equilibrium water solubility at pH 2.6; type: physicochemical
[13] = Equilibrium water solubility at pH 3.9; type: physicochemical
[14] = Equilibrium water solubility at pH 2.8; type: physicochemical
[15] = Equilibrium water solubility at pH 2.7; type: physicochemical
[16] = Equilibrium water solubility at pH 4.0; type: physicochemical

Neuronal acetylcholine receptor; alpha4/beta2, sequence (P09483 whole entry): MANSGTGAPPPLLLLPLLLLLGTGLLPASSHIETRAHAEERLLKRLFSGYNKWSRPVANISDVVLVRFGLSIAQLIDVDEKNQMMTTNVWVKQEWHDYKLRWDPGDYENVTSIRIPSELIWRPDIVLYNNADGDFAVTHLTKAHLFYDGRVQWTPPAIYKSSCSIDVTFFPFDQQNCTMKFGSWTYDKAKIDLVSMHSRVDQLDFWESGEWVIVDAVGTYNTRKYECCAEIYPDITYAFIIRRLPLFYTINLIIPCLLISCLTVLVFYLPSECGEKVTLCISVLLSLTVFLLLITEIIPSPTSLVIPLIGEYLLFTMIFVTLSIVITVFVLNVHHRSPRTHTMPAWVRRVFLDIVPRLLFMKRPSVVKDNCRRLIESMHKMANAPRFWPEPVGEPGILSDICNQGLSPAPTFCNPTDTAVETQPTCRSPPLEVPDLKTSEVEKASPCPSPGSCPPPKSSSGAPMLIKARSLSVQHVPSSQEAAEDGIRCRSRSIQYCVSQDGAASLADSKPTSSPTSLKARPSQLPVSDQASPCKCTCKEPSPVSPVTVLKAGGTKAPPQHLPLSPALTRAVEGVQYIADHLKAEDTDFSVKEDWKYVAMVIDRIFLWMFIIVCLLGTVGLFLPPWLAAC
Neuronal acetylcholine receptor; alpha4/beta2, sequence (P12390 whole entry): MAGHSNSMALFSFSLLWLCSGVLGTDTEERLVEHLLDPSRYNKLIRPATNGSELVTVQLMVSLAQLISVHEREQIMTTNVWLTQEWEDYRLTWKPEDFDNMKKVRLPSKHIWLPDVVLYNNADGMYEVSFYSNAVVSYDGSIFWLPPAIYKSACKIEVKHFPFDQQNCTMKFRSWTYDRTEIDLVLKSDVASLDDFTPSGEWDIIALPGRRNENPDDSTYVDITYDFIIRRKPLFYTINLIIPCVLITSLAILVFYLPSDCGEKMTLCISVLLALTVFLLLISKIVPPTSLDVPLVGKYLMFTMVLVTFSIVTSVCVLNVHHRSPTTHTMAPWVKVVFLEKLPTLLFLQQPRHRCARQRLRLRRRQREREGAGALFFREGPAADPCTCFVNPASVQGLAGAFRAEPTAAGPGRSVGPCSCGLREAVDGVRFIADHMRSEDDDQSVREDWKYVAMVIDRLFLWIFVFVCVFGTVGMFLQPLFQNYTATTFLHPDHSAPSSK

| SMILES | MIC [1] | MIC [2] | MIC [3] | ED50 [4] | further results |
| --- | --- | --- | --- | --- | --- |
| CO/C(C)=C1/NC(=O)[C@H]([C@@H](C)O)NC(=O)c2csc(n2)-c2cc(O)c(-c3nc(C(=O)NC(CN4CCN(CC(=O)O)CC4)C(N)=O)cs3)nc2-c2csc(n2)[C@@H]2COC(=O)c3c4c5c(cccc5n3O)COC(=O)[C@@H](O[C@H]3C[C@](C)(O)[C@H](N(C)C)[C@H](C)O3)[C@@H](OC4)[C@H](NC(=O)c3csc1n3)c1nc(cs1)C(=O)N2 (stereo partly specified) | 1 µg/mL (≈ 0.632 µM) | 1 µg/mL (≈ 0.632 µM) | 0.03 µg/mL (≈ 0.019 µM) | > 10 mg/kg | solubility thermodynamic [5]: > 2600 µg/mL |
| CO/C(C)=C1/NC(=O)[C@H]([C@@H](C)O)NC(=O)c2csc(n2)-c2cc(O)c(-c3nc(C(=O)NC(CNCCOCCOCCO)C(N)=O)cs3)nc2-c2csc(n2)[C@@H]2COC(=O)c3c4c5c(cccc5n3O)COC(=O)[C@@H](O[C@H]3C[C@](C)(O)[C@H](N(C)C)[C@H](C)O3)[C@@H](OC4)[C@H](NC(=O)c3csc1n3)c1nc(cs1)C(=O)N2 (stereo partly specified) | 0.25 µg/mL (≈ 0.158 µM) | 0.5 µg/mL (≈ 0.315 µM) | 0.06 µg/mL (≈ 0.0378 µM) | 4.6 mg/kg | solubility thermodynamic [5]: > 3100 µg/mL |
| CO/C(C)=C1/NC(=O)[C@H]([C@@H](C)O)NC(=O)c2csc(n2)-c2cc(O)c(-c3nc(C(=O)NC(CN4CCC(O)CC4)C(N)=O)cs3)nc2-c2csc(n2)[C@@H]2COC(=O)c3c4c5c(cccc5n3O)COC(=O)[C@@H](O[C@H]3C[C@](C)(O)[C@H](N(C)C)[C@H](C)O3)[C@@H](OC4)[C@H](NC(=O)c3csc1n3)c1nc(cs1)C(=O)N2 (stereo partly specified) | 0.06 µg/mL (≈ 0.039 µM) | 0.25 µg/mL (≈ 0.162 µM) | 0.007 µg/mL (≈ 0.00455 µM) | 2.1 mg/kg | solubility thermodynamic [6]: > 2700 µg/mL |
| CO/C(C)=C1/NC(=O)[C@H]([C@@H](C)O)NC(=O)c2csc(n2)-c2cc(O)c(-c3nc(C(=O)NC(CN(CCO)CCO)C(N)=O)cs3)nc2-c2csc(n2)[C@@H]2COC(=O)c3c4c5c(cccc5n3O)COC(=O)[C@@H](O[C@H]3C[C@](C)(O)[C@H](N(C)C)[C@H](C)O3)[C@@H](OC4)[C@H](NC(=O)c3csc1n3)c1nc(cs1)C(=O)N2 (stereo partly specified) | 0.12 µg/mL (≈ 0.0778 µM) | 0.25 µg/mL (≈ 0.162 µM) | 0.01 µg/mL (≈ 0.00648 µM) | 5 mg/kg | solubility thermodynamic [7]: > 1700 µg/mL |
| Clc1ccc(C2CC3CCC2CN3)cn1 (stereo unspecified) | – | – | – | – | Ki [8]: 0.34 nM; EC50 [9]: 1.4 mg/kg |
| CO/C(C)=C1/NC(=O)[C@H]([C@@H](C)O)NC(=O)c2csc(n2)-c2cc(O)c(-c3nc(C(=O)NC(CN4CCCC4)C(N)=O)cs3)nc2-c2csc(n2)[C@@H]2COC(=O)c3c4c5c(cccc5n3O)COC(=O)[C@@H](O[C@H]3C[C@](C)(O)[C@H](N(C)C)[C@H](C)O3)[C@@H](OC4)[C@H](NC(=O)c3csc1n3)c1nc(cs1)C(=O)N2 (stereo partly specified) | 0.06 µg/mL (≈ 0.0398 µM) | 0.5 µg/mL (≈ 0.331 µM) | 0.01 µg/mL (≈ 0.00663 µM) | 2.5 mg/kg | solubility thermodynamic [7]: > 3000 µg/mL |
| COCCOCCOCCOCCN1CCN(CC(NC(=O)c2csc(-c3nc4c(cc3O)-c3nc(cs3)C(=O)N[C@@H]([C@@H](C)O)C(=O)N/C(=C(\C)OC)c3nc(cs3)C(=O)N[C@@H]3c5nc(cs5)C(=O)N[C@@H](COC(=O)c5c6c7c(cccc7n5O)COC(=O)[C@@H](O[C@H]5C[C@](C)(O)[C@H](N(C)C)[C@H](C)O5)[C@H]3OC6)c3nc-4cs3)n2)C(N)=O)CC1 (stereo partly specified) | 0.5 µg/mL (≈ 0.292 µM) | 4 µg/mL (≈ 2.33 µM) | 0.25 µg/mL (≈ 0.146 µM) | 1.5 mg/kg | solubility thermodynamic [10]: > 1500 µg/mL |
| CO/C(C)=C1/NC(=O)[C@H]([C@@H](C)O)NC(=O)c2csc(n2)-c2cc(O)c(-c3nc(C(=O)NC(CNCCOCCOCCOCCN)C(N)=O)cs3)nc2-c2csc(n2)[C@@H]2COC(=O)c3c4c5c(cccc5n3O)COC(=O)[C@@H](O[C@H]3C[C@](C)(O)[C@H](N(C)C)[C@H](C)O3)[C@@H](OC4)[C@H](NC(=O)c3csc1n3)c1nc(cs1)C(=O)N2 (stereo partly specified) | 1 µg/mL (≈ 0.614 µM) | 1 µg/mL (≈ 0.614 µM) | 0.25 µg/mL (≈ 0.153 µM) | > 10 mg/kg | solubility thermodynamic [11]: > 2800 µg/mL |
| CO/C(C)=C1/NC(=O)[C@H]([C@@H](C)O)NC(=O)c2csc(n2)-c2cc(O)c(-c3nc(C(=O)NC(CN(C)C)C(N)=O)cs3)nc2-c2csc(n2)[C@@H]2COC(=O)c3c4c5c(cccc5n3O)COC(=O)[C@@H](O[C@H]3C[C@](C)(O)[C@H](N(C)C)[C@H](C)O3)[C@@H](OC4)[C@H](NC(=O)c3csc1n3)c1nc(cs1)C(=O)N2 (stereo partly specified) | 0.06 µg/mL (≈ 0.0405 µM) | 0.12 µg/mL (≈ 0.0809 µM) | 0.03 µg/mL (≈ 0.0202 µM) | < 0.62 mg/kg | solubility thermodynamic [5]: > 10000 µg/mL |
| CNCCNCC(NC(=O)c1csc(-c2nc3c(cc2O)-c2nc(cs2)C(=O)N[C@@H]([C@@H](C)O)C(=O)N/C(=C(\C)OC)c2nc(cs2)C(=O)N[C@@H]2c4nc(cs4)C(=O)N[C@@H](COC(=O)c4c5c6c(cccc6n4O)COC(=O)[C@@H](O[C@H]4C[C@](C)(O)[C@H](N(C)C)[C@H](C)O4)[C@H]2OC5)c2nc-3cs2)n1)C(N)=O (stereo partly specified) | 0.25 µg/mL (≈ 0.165 µM) | 0.5 µg/mL (≈ 0.331 µM) | 0.03 µg/mL (≈ 0.0198 µM) | – | solubility thermodynamic [12]: > 2500 µg/mL |
| CO/C(C)=C1/NC(=O)[C@H]([C@@H](C)O)NC(=O)c2csc(n2)-c2cc(O)c(-c3nc(C(=O)NC(CN(C)CCCn4ccnc4)C(N)=O)cs3)nc2-c2csc(n2)[C@@H]2COC(=O)c3c4c5c(cccc5n3O)COC(=O)[C@@H](O[C@H]3C[C@](C)(O)[C@H](N(C)C)[C@H](C)O3)[C@@H](OC4)[C@H](NC(=O)c3csc1n3)c1nc(cs1)C(=O)N2 (stereo partly specified) | 0.12 µg/mL (≈ 0.0761 µM) | 0.12 µg/mL (≈ 0.0761 µM) | 0.01 µg/mL (≈ 0.00634 µM) | 5 mg/kg | solubility thermodynamic [13]: > 10600 µg/mL |
| CO/C(C)=C1/NC(=O)[C@H]([C@@H](C)O)NC(=O)c2csc(n2)-c2cc(O)c(-c3nc(C(=O)NC(CNCCN4CCN(C)CC4)C(N)=O)cs3)nc2-c2csc(n2)[C@@H]2COC(=O)c3c4c5c(cccc5n3O)COC(=O)[C@@H](O[C@H]3C[C@](C)(O)[C@H](N(C)C)[C@H](C)O3)[C@@H](OC4)[C@H](NC(=O)c3csc1n3)c1nc(cs1)C(=O)N2 (stereo partly specified) | 0.25 µg/mL (≈ 0.158 µM) | 4 µg/mL (≈ 2.53 µM) | 0.01 µg/mL (≈ 0.00633 µM) | > 10 mg/kg | solubility thermodynamic [14]: > 2900 µg/mL |
| CO/C(C)=C1/NC(=O)[C@H]([C@@H](C)O)NC(=O)c2csc(n2)-c2cc(O)c(-c3nc(C(=O)NC(CN(C)CCC(=O)Nc4ccncc4)C(N)=O)cs3)nc2-c2csc(n2)[C@@H]2COC(=O)c3c4c5c(cccc5n3O)COC(=O)[C@@H](O[C@H]3C[C@](C)(O)[C@H](N(C)C)[C@H](C)O3)[C@@H](OC4)[C@H](NC(=O)c3csc1n3)c1nc(cs1)C(=O)N2 (stereo partly specified) | 0.5 µg/mL (≈ 0.309 µM) | 0.5 µg/mL (≈ 0.309 µM) | 0.03 µg/mL (≈ 0.0186 µM) | 8.7 mg/kg | solubility thermodynamic [14]: > 3000 µg/mL |
| CO/C(C)=C1/NC(=O)[C@H]([C@@H](C)O)NC(=O)c2csc(n2)-c2cc(O)c(-c3nc(C(=O)NC(CN4CCN(C(C)=O)CC4)C(N)=O)cs3)nc2-c2csc(n2)[C@@H]2COC(=O)c3c4c5c(cccc5n3O)COC(=O)[C@@H](O[C@H]3C[C@](C)(O)[C@H](N(C)C)[C@H](C)O3)[C@@H](OC4)[C@H](NC(=O)c3csc1n3)c1nc(cs1)C(=O)N2 (stereo partly specified) | 0.5 µg/mL (≈ 0.319 µM) | 2 µg/mL (≈ 1.28 µM) | 0.03 µg/mL (≈ 0.0192 µM) | 5 mg/kg | solubility thermodynamic [15]: > 2400 µg/mL |
| C=C(NC(=O)c1csc(-c2nc3c(cc2O)-c2nc(cs2)C(=O)N[C@@H]([C@@H](C)O)C(=O)N/C(=C(\C)OC)c2nc(cs2)C(=O)N[C@@H]2c4nc(cs4)C(=O)N[C@@H](COC(=O)c4c5c6c(cccc6n4O)COC(=O)C(O[C@H]4C[C@](C)(O)[C@H](N(C)C)[C@H](C)O4)[C@H]2OC5)c2nc-3cs2)n1)C(N)=O (stereo partly specified) | 0.007 µg/mL (≈ 0.00487 µM) | 0.03 µg/mL (≈ 0.0209 µM) | 0.001 µg/mL (≈ 0.000696 µM) | 0.8 mg/kg | solubility thermodynamic [16]: 340 µg/mL (≈ 237 µM) |
| CNCC(NC(=O)c1csc(-c2nc3c(cc2O)-c2nc(cs2)C(=O)N[C@@H]([C@@H](C)O)C(=O)N/C(=C(\C)OC)c2nc(cs2)C(=O)N[C@@H]2c4nc(cs4)C(=O)N[C@@H](COC(=O)c4c5c6c(cccc6n4O)COC(=O)[C@@H](O[C@H]4C[C@](C)(O)[C@H](N(C)C)[C@H](C)O4)[C@H]2OC5)c2nc-3cs2)n1)C(N)=O (stereo partly specified) | 2 µg/mL (≈ 1.36 µM) | 8 µg/mL (≈ 5.45 µM) | 0.001 µg/mL (≈ 0.000681 µM) | 1.6 mg/kg | solubility thermodynamic [7]: > 3500 µg/mL |
| CO/C(C)=C1/NC(=O)C([C@@H](C)O)NC(=O)c2csc(n2)-c2cc(O)c(-c3nc(C(=O)NC(CNCCCn4ccnc4)C(N)=O)cs3)nc2-c2csc(n2)[C@@H]2COC(=O)c3c4c5c(cccc5n3O)COC(=O)[C@@H](O[C@H]3C[C@](C)(O)[C@H](N(C)C)[C@H](C)O3)[C@@H](OC4)[C@H](NC(=O)c3csc1n3)c1nc(cs1)C(=O)N2 (stereo partly specified) | 0.5 µg/mL (≈ 0.32 µM) | 1 µg/mL (≈ 0.64 µM) | 0.06 µg/mL (≈ 0.0384 µM) | 10 mg/kg | solubility thermodynamic [11]: > 10000 µg/mL |
